Patent publication US12419811B2, “Hydrogel drug delivery composition” (Board of Regents of the University of Nebraska, priority 2019, dated 2025)

Experiments:
[1] = system: experimental periodontitis; assay: BIO hydrogels in rat experimental periodontitis, H&E histology scores; format: in vivo, Sprague Dawley rats
From the text: (§1) Ten-month-old female Sprague Dawley rats (retired breeders, Envigo) were acclimated for one week prior to experiment. […] Using silk ligatures, the experimental periodontitis was induced as described previously^[32, 38]. Briefly, rats were first anesthetized in an isoflurane chamber with a 1% to 4% isoflurane in 100% O2. After taking the body weight, the rats were positioned with a nose cone supplied with 0.5% to 2% isoflurane and 100% O2 to maintain anesthesia during the entire procedure. To induce experimental periodontitis, a 4-0 silk ligature was gently tightened subgingivally around the maxillary 2nd molars (M2). […] To probe the presence of inflammatory cells between M1 and M2 and osteoclasts in the alveolar crest, a pathologist (SML) blind to experimental group assignment, evaluated the slides semi-quantitatively using an Olympus BX53 microscope. A semi-quantitative scoring system^[32, 40, 41] was used to evaluate inflammatory cells, where 0 is negative, 1 is less than 30% of the affected tissues, 2 is some inflammatory cells (30-60%), and 3 is many inflammatory cells (>60%). Similarly, osteoclasts on the alveolar crest were evaluated using a semi-quantitative scoring system^[32,42] where 0 is negative, 1 is a few osteoclasts lining less than 5% of alveolar bone surface, 2 is some osteoclasts (5-25%), and 3 is many osteoclasts (25-50%). […]

β-catenin = assay: BIO hydrogels in rat experimental periodontitis, IHC staining of β-catenin; format: in vivo, Sprague Dawley rats; settings: between M1 and M2
From the text: as §1

[2] = system: experimental periodontitis; assay: BIO hydrogels in rat experimental periodontitis, micro-CT of periodontal bone and femur; format: in vivo, Sprague Dawley rats; settings: 100 μM BIO, week 4
From the text: Ten-month-old female Sprague Dawley rats (retired breeders, Envigo) were acclimated for one week prior to experiment. […] Using silk ligatures, the experimental periodontitis was induced as described previously^[32, 38]. Briefly, rats were first anesthetized in an isoflurane chamber with a 1% to 4% isoflurane in 100% O2. After taking the body weight, the rats were positioned with a nose cone supplied with 0.5% to 2% isoflurane and 100% O2 to maintain anesthesia during the entire procedure. To induce experimental periodontitis, a 4-0 silk ligature was gently tightened subgingivally around the maxillary 2nd molars (M2). Following ligature placement, different treatments (10 μL) were locally delivered between the maxillary 1st molar (M1) and 2nd molar (M2) once each week for 3 weeks. After one week, the ligatures were removed. All animals were euthanized at week 4. The entire palate including all three molars was dissected and fixed in 10% formalin prior to micro-CT and histological analyses. […] All palate samples (including all three molars) were evaluated for alveolar bone quality using a high-resolution X-ray microtomography system (Skyscan 1172, Bruker, Kontich, Belgium), references to previous studies^[32, 38]. […] To evaluate bone erosion, the distance from cementoenamel junction (CEJ) to alveolar bone crest (ABC) was determined using Skyscan Data viewer software. […] The ROI was determined from the distopalatal of M1 to the mesiopalatal of M2 (length), 130 slices below the CEJ of M1 and M2 (height), and from the palatal side to the buccal side of M1 and M2 (width). […] For bone quality analysis, a consistent polygonal ROI of trabecular bone at the distal femur was selected and the ROI was determined from 20 slices to 100 slices proximal to the growth plate. The bone histomorphometric parameters, including mean bone volume (BV), bone volume/tissue volume (BV/TV), trabecular thickness (Tb.Th) and bone mineral density (BMD) were determined using CT-Analyzer software.

[3] = In vitro release of BIO from PF127 hydrogel (membrane-less); format: physicochemical; settings: 37° C.
Description: After gelation, 2 mL of phosphate-buffered saline (PBS; pH 7.4) containing 0.5% Tween 80 pre-equilibrated at 37° C. were gently laid over the surface of the hydrogels and incubated in a water bath at 37° C. with continuous gentle shaking. […] The release study was performed in triplicate.

[4] = 10 μL local once each week for 3 weeks

Compound: O=C1Nc2cc(Br)ccc2/C1=C1/Nc2ccccc2/C1=N\O [BIO, 6-bromoindirubin-3′-oxime]
- osteoclast score (semi-quantitative, 0-3) ([1]; alveolar crest, after three weeks of treatment): significantly lower than the saline Con-group
- inflammatory cell score (semi-quantitative, 0-3) ([1]; between M1 and M2, after three weeks of treatment): statistically significant difference (P<0.01) only when compared to the saline Con-group
- β-Catenin positive cell score (0-3) (β-catenin): not significantly different (P>0.05) from the saline Con-, PF127, and healthy Con+ group
- linear distance CEJ to ABC (alveolar bone loss) ([2]; 10 μL local between M1 and M2 once each week for 3 weeks): did not show a statistically significant difference comparing to the saline-treated group
- Bone volume (BV) of alveolar bone [2, 4]: No statistically significant difference
- trabecular thickness (Tb.Th) of alveolar bone [2, 4]: No statistically significant difference
- burst release of BIO ([3]; from 20% w/v PF127 hydrogel, first 3 hr): ~50%
- total release of BIO ([3]; from 20% w/v PF127 hydrogel, in 24 hr): ~99%
- BIO release profile ([3]; from 25% w/v PF127 hydrogel): burst release in the first 12 hr followed by a sustained release in the next 48 hr
- duration of sustained BIO release ([3]; from 30% w/v PF127 hydrogel): over 48 hr
